This note sets out measurements from PubChem BioAssay AID256 (DTP/NCI, 2004).

In the experiment the test system is CD2F1 mice, L1210 leukemia ip, survival T/C. As to the kind of experiment: NCI In Vivo Anticancer Drug Screen. Data for tumor model L1210 Leukemia (intraperitoneal) in CD2F1 (CDF1) mice. The note with it: higher = longer survival. The essentials:
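Compound-dosed mice with transplantable tumor versus matched vehicle controls; endpoint ratio T/C reported.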

[1] abbreviates: endpoint: mean survival time, dose: 100.0 mg/kg/injection, schedule: Q01DX009 (ip), vehicle: saline with Tween-80.
Setting [2] is: endpoint: mean survival time, dose: 100.0 mg/kg/injection, schedule: Q04DX003 (ip), vehicle: saline with Tween-80.
Where [3] appears, read: endpoint: mean survival time, dose: 200.0 mg/kg/injection, schedule: Q01DX009 (ip), vehicle: saline with Tween-80.
Where [4] appears, read: endpoint: mean survival time, dose: 200.0 mg/kg/injection, schedule: Q04DX003 (ip), vehicle: saline with Tween-80.
The mark [5] stands for this setting: endpoint: mean survival time, dose: 400.0 mg/kg/injection, schedule: Q01DX009 (ip), vehicle: saline with Tween-80.
Where [6] appears, read: endpoint: mean survival time, dose: 400.0 mg/kg/injection, schedule: Q04DX003 (ip), vehicle: saline with Tween-80.
The mark [7] stands for this setting: endpoint: mean survival time, dose: 100.0 mg/kg/injection, schedule: Q01DX001 (ip), vehicle: saline.
Setting [8] is: endpoint: mean survival time, dose: 100.0 mg/kg/injection, schedule: Q04DX003 (ip), vehicle: saline.
[9] abbreviates: endpoint: mean survival time, dose: 200.0 mg/kg/injection, schedule: Q01DX001 (ip), vehicle: saline.
Setting [10] is: endpoint: mean survival time, dose: 200.0 mg/kg/injection, schedule: Q04DX003 (ip), vehicle: saline.
Setting [11] is: endpoint: mean survival time, dose: 400.0 mg/kg/injection, schedule: Q01DX001 (ip), vehicle: saline.

Where “and” joins values, the source holds several entries; their conditions need not be identical. Equal entries are not always repeated. Toxic doses and inconclusive results are not listed.

On to `Cc1ccc([Si](OO[Si](c2ccccc2)(c2ccccc2)c2ccc(C)cc2)(c2ccccc2)c2ccccc2)cc1`, for which the T/C under setting [1] is 98 % of control; the T/C under setting [2] is 98 % of control; the T/C under setting [3] was 93 % of control; the T/C under setting [4] is 100 % of control; the T/C under setting [5] is 95 % of control; the T/C under setting [6] is 98 % of control.
`CCCCCCC(=O)[O][Hg][c]1ccccc1`: the T/C was 105 % of control (endpoint: mean survival time, dose: 9.38 mg/kg/injection, schedule: Q01DX001 (ip), vehicle: saline); 100 % of control (endpoint: mean survival time, dose: 18.75 mg/kg/injection, schedule: Q01DX001 (ip), vehicle: saline); 103 % of control (endpoint: mean survival time, dose: 37.5 mg/kg/injection, schedule: Q01DX001 (ip), vehicle: saline).
For `NC(=O)c1nn(C2OC(CO)C(O)C2O)c2ncnc(N)c12` (stereo unspecified), the T/C was 207 % of control (endpoint: mean survival time, dose: 25.0 mg/kg/injection, schedule: Q01DX009 (ip), vehicle: Klucel (hydroxypropylcellulose) (HPC)) and 200 % of control (endpoint: mean survival time, dose: 50.0 mg/kg/injection, schedule: Q01DX009 (ip), vehicle: Klucel (hydroxypropylcellulose) (HPC)).
For `CCOC(=O)C(N)Cc1ccc(OC)c(N(CCCl)CCCl)c1` (stereo unspecified), the T/C was 122 % of control (endpoint: mean survival time, dose: 1.1 mg/kg/injection, schedule: Q01DX001 (ip), vehicle: carboxymethylcellulose (CMC)) and 120 % of control (endpoint: mean survival time, dose: 1.7 mg/kg/injection, schedule: Q01DX001 (ip), vehicle: carboxymethylcellulose (CMC)).
For `COc1ccc(CC2C(=O)OC(=O)C2Cc2ccc(OC)c(OC)c2)cc1OC` (stereo unspecified), the T/C by setting is: under setting [1], 104 % of control; under setting [3], 108 % of control; under setting [5], 96 % of control.
Turning to `COc1ccc2c(O)c(-c3ccc(OC)c(OC)c3)c(=O)oc2c1`, the T/C is, setting by setting: (endpoint: mean survival time, dose: 25.0 mg/kg/injection, schedule: Q01DX009 (ip), vehicle: saline with Tween-80) 96 % of control; (endpoint: mean survival time, dose: 50.0 mg/kg/injection, schedule: Q01DX009 (ip), vehicle: saline with Tween-80) 103 % of control; under setting [1], 106 % of control.
`CCCCCCCCCCCCCCCCCCOCCCCCCCCCCCCCCCCCC`: the T/C under setting [1] was 102 % of control; the T/C under setting [2] is 95 % of control; the T/C under setting [3] is 98 % of control; the T/C under setting [4] was 88 % of control; the T/C under setting [5] is 93 % of control; the T/C under setting [6] is 92 % of control.
In the case of `O=C1C=CC(=CC=C2C=CN(CCCCCCCCCCCO)C=C2)C=C1`, the T/C reads like this: (endpoint: median survival time, dose: 1.56 mg/kg/injection, schedule: Q01DX005 (ip), vehicle: saline with Tween-80) 96 % of control; (endpoint: median survival time, dose: 2.25 mg/kg/injection, schedule: Q01DX005 (ip), vehicle: saline with Tween-80) 102 % of control and 105 % of control; (endpoint: median survival time, dose: 3.13 mg/kg/injection, schedule: Q01DX005 (ip), vehicle: saline with Tween-80) 107 % of control; (endpoint: median survival time, dose: 3.75 mg/kg/injection, schedule: Q01DX005 (ip), vehicle: saline with Tween-80) 102 % of control and 105 % of control; (endpoint: median survival time, dose: 6.25 mg/kg/injection, schedule: Q01DX005 (ip), vehicle: saline with Tween-80) 117 % of control and 109 % of control; (endpoint: median survival time, dose: 10.4 mg/kg/injection, schedule: Q01DX005 (ip), vehicle: saline with Tween-80) 118 % of control. The T/C runs as follows: (endpoint: median survival time, dose: 10.41 mg/kg/injection, schedule: Q01DX005 (ip), vehicle: saline with Tween-80) 118 % of control; (endpoint: median survival time, dose: 12.5 mg/kg/injection, schedule: Q01DX005 (ip), vehicle: saline with Tween-80) 119 % of control; (endpoint: median survival time, dose: 17.35 mg/kg/injection, schedule: Q01DX005 (ip), vehicle: saline with Tween-80) 119 % of control; (endpoint: median survival time, dose: 17.4 mg/kg/injection, schedule: Q01DX005 (ip), vehicle: saline with Tween-80) 121 % of control; (endpoint: median survival time, dose: 25.0 mg/kg/injection, schedule: Q01DX005 (ip), vehicle: saline with Tween-80) 92 % of control.
For the compound `O=C(NO)c1ccc(O)c(O)c1`, the T/C was 115 % of control (endpoint: mean survival time, dose: 25.0 mg/kg/injection, schedule: Q01DX009 (ip), vehicle: water); 121 % of control (endpoint: mean survival time, dose: 164.71 mg/kg/injection, schedule: Q01DX009 (ip), vehicle: water); 152 % of control (endpoint: mean survival time, dose: 196.0 mg/kg/injection, schedule: Q01DX009 (ip), vehicle: water); 167 % of control (endpoint: mean survival time, dose: 200.0 mg/kg/injection, schedule: Q01DX009 (ip), vehicle: water); 168 % of control (endpoint: mean survival time, dose: 245.0 mg/kg/injection, schedule: Q01DX009 (ip), vehicle: water); 167 % of control (endpoint: mean survival time, dose: 307.0 mg/kg/injection, schedule: Q01DX009 (ip), vehicle: water). The T/C reads like this: (endpoint: mean survival time, dose: 307.2 mg/kg/injection, schedule: Q01DX009 (ip), vehicle: water) 176 % of control; (endpoint: mean survival time, dose: 336.14 mg/kg/injection, schedule: Q01DX009 (ip), vehicle: water) 155 % of control; (endpoint: mean survival time, dose: 383.0 mg/kg/injection, schedule: Q01DX009 (ip), vehicle: water) 185 % of control; (endpoint: mean survival time, dose: 384.0 mg/kg/injection, schedule: Q01DX009 (ip), vehicle: water) 162 % of control; (endpoint: mean survival time, dose: 400.0 mg/kg/injection, schedule: Q01DX009 (ip), vehicle: water) 167 % of control; (endpoint: mean survival time, dose: 480.0 mg/kg/injection, schedule: Q01DX009 (ip), vehicle: water) 167 % of control and 206 % of control. Moreover, the T/C runs as follows: (endpoint: mean survival time, dose: 480.2 mg/kg/injection, schedule: Q01DX009 (ip), vehicle: water) 187 % of control; (endpoint: mean survival time, dose: 600.0 mg/kg/injection, schedule: Q01DX009 (ip), vehicle: water) 154 % of control and 164 % of control; (endpoint: median survival time, dose: 18.75 mg/kg/injection, schedule: Q03HX024 (ip), vehicle: water) 113 % of control; (endpoint: median survival time, dose: 22.5 mg/kg/injection, schedule: Q03HX024 (ip), vehicle: water) 109 % of control; (endpoint: median survival time, dose: 37.5 mg/kg/injection, schedule: Q03HX024 (ip), vehicle: water) 124 % of control; (endpoint: median survival time, dose: 45.0 mg/kg/injection, schedule: Q03HX024 (ip), vehicle: water) 119 % of control. The T/C reads like this: (endpoint: median survival time, dose: 50.0 mg/kg/injection, schedule: Q01DX009 (ip), vehicle: water) 117 % of control; (endpoint: median survival time, dose: 100.0 mg/kg/injection, schedule: Q01DX009 (ip), vehicle: water) 124 % of control; (endpoint: median survival time, dose: 120.0 mg/kg/injection, schedule: Q01DX009 (ip), vehicle: water) 122 % of control; (endpoint: median survival time, dose: 180.0 mg/kg/injection, schedule: Q03HX024 (ip), vehicle: water) 214 % of control; (endpoint: median survival time, dose: 225.0 mg/kg/injection, schedule: Q03HX024 (ip), vehicle: water) 273 % of control; (endpoint: median survival time, dose: 240.0 mg/kg/injection, schedule: Q01DX009 (ip), vehicle: water) 154 % of control. Besides, the T/C (endpoint: median survival time, dose: 268.0 mg/kg/injection, schedule: Q01DX009 (ip), vehicle: water) is 160 % of control; the T/C (endpoint: median survival time, dose: 270.0 mg/kg/injection, schedule: Q03HX024 (ip), vehicle: water) was 238 % of control; the T/C (endpoint: median survival time, dose: 400.0 mg/kg/injection, schedule: Q01DX009 (ip), vehicle: water) is 162 % of control and 163 % of control; the T/C (endpoint: median survival time, dose: 480.0 mg/kg/injection, schedule: Q01DX009 (ip), vehicle: water) was 178 % of control; the T/C (endpoint: median survival time, dose: 600.0 mg/kg/injection, schedule: Q01DX009 (ip), vehicle: water) is 95 % of control; the T/C (endpoint: median survival time, dose: 720.0 mg/kg/injection, schedule: Q01DX009 (ip), vehicle: water) was 170 % of control.
Take `O=C1C(Cl)=C(NCc2ccccc2Cl)C(=O)c2ccccc21`: the T/C (endpoint: mean survival time, dose: 12.5 mg/kg/injection, schedule: Q01DX001 (ip), vehicle: saline with Tween-80) is 108 % of control and the T/C (endpoint: mean survival time, dose: 25.0 mg/kg/injection, schedule: Q01DX001 (ip), vehicle: saline with Tween-80) is 108 % of control.
As for `CSc1nnc(SC)c(SC)n1`, the T/C (endpoint: mean survival time, dose: 75.0 mg/kg/injection, schedule: Q01DX001 (ip), vehicle: saline) was 96 % of control.
For `O=Cc1ccc[nH]1`, the T/C under setting [7] was 94 % of control; the T/C under setting [8] was 104 % of control; the T/C under setting [9] is 100 % of control; the T/C under setting [10] was 101 % of control; the T/C under setting [11] was 100 % of control; the T/C (endpoint: mean survival time, dose: 400.0 mg/kg/injection, schedule: Q04DX003 (ip), vehicle: saline) was 108 % of control.
Take `O=S(=O)(c1ccccc1)c1cccs1`: the T/C reads like this: (endpoint: mean survival time, dose: 50.0 mg/kg/injection, schedule: Q04DX003 (ip), vehicle: saline) 93 % of control; under setting [7], 110 % of control; under setting [8], 98 % of control; under setting [9], 112 % of control; under setting [10], 95 % of control; under setting [11], 112 % of control.
